Source: paper PMC10882719 (Frontiers in Neuroscience, 2024)
Like-named read-outs stand apart in the source and are kept apart here.

Tests used:
Format in all cases: cell-based
168 GPCRs [1] = target: T1, 168 GPCRs (Homo sapiens, UniProt Q969F8); conditions: KISS1R
T1 construct: host or cells: PathHunter cell lines

168 GPCRs [2] = target: T2, 168 GPCRs (Homo sapiens, UniProt P46091)
T2 construct: host or cells: PathHunter cell lines
T2 sequence (P46091 1-355): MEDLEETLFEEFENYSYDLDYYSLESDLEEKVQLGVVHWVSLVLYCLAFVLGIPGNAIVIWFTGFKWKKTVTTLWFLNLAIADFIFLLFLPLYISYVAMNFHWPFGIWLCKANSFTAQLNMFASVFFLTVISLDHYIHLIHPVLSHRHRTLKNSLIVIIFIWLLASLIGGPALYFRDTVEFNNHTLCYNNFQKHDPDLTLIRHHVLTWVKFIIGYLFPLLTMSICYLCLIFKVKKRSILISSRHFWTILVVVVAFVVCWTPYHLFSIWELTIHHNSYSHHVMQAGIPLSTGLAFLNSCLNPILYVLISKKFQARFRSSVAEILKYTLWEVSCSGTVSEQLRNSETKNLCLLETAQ

168 GPCRs [3] = target: T3, 168 GPCRs (Homo sapiens, UniProt P43220); conditions: GLP1R
T3 construct: host or cells: PathHunter cell lines

168 GPCRs [4] = target: T4, 168 GPCRs (Homo sapiens, UniProt P21917)
T4 construct: host or cells: PathHunter cell lines
T4 sequence (P21917 1-419): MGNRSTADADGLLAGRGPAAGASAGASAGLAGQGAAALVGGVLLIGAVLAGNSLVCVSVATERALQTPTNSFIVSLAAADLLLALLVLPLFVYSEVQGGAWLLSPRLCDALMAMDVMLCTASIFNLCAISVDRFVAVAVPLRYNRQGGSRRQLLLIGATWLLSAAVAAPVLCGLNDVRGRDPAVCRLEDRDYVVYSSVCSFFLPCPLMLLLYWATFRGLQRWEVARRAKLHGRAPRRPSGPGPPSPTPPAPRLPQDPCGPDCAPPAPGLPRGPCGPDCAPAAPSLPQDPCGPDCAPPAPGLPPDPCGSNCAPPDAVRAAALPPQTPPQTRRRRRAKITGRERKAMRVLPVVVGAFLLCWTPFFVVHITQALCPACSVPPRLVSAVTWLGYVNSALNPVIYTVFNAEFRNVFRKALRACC

168 GPCRs [5] = target: T5, 168 GPCRs (Homo sapiens, UniProt Q8TDV5)
T5 construct: host or cells: PathHunter cell lines
T5 sequence (Q8TDV5 1-335): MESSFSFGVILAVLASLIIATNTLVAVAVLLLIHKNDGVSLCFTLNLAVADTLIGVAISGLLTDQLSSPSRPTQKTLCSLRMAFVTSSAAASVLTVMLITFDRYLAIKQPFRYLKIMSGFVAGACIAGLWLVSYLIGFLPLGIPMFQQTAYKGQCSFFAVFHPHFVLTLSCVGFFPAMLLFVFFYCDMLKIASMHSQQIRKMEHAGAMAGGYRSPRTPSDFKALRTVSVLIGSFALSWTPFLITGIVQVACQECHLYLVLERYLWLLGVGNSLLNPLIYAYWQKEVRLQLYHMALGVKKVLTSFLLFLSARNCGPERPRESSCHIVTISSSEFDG

168 GPCRs [6] = target: T6, 168 GPCRs (Homo sapiens, UniProt P08913); conditions: ADRA2A
T6 construct: host or cells: PathHunter cell lines
T6 sequence (P08913 1-465): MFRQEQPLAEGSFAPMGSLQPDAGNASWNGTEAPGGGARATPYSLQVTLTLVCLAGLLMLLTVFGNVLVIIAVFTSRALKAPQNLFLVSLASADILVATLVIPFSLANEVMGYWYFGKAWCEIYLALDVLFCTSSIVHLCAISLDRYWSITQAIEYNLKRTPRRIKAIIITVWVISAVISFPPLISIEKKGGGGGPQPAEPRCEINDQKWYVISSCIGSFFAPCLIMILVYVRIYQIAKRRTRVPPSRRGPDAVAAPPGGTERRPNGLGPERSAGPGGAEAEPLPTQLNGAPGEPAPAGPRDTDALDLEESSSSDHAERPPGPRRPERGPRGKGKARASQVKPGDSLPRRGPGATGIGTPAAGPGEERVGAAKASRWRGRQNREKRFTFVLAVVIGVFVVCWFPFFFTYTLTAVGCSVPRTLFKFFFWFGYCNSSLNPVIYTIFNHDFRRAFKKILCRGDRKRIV

168 GPCRs [7] = target: T7, 168 GPCRs (Homo sapiens, UniProt P21554)
T7 construct: host or cells: PathHunter cell lines
T7 sequence (P21554 whole entry): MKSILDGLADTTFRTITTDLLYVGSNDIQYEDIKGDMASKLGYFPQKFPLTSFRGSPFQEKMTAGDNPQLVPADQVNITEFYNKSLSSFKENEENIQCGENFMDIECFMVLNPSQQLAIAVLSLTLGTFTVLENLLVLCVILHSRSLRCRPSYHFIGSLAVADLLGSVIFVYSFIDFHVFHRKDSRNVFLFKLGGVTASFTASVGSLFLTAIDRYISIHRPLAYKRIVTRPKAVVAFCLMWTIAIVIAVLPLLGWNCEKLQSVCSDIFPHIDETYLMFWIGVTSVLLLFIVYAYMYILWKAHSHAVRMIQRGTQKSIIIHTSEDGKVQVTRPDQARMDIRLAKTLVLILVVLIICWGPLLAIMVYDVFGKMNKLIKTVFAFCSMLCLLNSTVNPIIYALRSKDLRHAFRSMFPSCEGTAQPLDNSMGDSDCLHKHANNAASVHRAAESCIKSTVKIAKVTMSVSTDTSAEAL

T1 sequence (Q969F8 whole entry): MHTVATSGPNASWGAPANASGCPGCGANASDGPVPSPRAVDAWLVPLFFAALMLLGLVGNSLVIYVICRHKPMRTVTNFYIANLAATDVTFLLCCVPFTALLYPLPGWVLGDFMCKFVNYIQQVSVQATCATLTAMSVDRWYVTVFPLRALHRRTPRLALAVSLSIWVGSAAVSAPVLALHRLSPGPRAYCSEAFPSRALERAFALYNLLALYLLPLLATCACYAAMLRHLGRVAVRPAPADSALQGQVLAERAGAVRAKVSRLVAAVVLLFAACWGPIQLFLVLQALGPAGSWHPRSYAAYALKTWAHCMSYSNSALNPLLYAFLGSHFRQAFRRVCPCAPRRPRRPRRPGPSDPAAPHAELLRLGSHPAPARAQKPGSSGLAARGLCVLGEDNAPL
T3 sequence (P43220 24-463): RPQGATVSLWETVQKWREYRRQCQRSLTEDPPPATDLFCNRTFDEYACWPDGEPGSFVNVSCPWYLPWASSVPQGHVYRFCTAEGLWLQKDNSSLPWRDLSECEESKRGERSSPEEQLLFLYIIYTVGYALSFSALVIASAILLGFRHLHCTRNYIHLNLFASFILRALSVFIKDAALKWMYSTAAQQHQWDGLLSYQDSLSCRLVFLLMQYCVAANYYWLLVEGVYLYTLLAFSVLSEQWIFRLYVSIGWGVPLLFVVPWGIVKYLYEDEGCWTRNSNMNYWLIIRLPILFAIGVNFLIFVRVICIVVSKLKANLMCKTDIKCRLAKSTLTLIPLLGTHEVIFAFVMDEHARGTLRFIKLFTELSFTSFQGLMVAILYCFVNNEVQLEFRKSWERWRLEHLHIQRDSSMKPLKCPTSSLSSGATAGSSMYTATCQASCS

SMILES: CNC(C)Cc1ccc2c(c1)OCO2 (centres unmarked) [MDMA, 3,4-Methylenedioxy methamphetamine, reference compound]
- % Agonist Activity (168 GPCRs [1]; 1 uM): -4.8%
- % Antagonist Activity (168 GPCRs [1]; 1 uM): -13.9%
- % Agonist Activity (168 GPCRs [1]; 10 uM): -4.3%
- % Antagonist Activity (168 GPCRs [1]; 10 uM): 1.8%
- % Agonist Activity (168 GPCRs [2]; GPR1, 1 uM): 0.7%
- % Antagonist Activity (168 GPCRs [2]; GPR1, 1 uM): 7.6%
- % Agonist Activity (168 GPCRs [2]; GPR1, 10 uM): 0.2%
- % Antagonist Activity (168 GPCRs [2]; GPR1, 10 uM): 11.9%
- % Agonist Activity (168 GPCRs [3]; 1 uM): -0.4%
- % Antagonist Activity (168 GPCRs [3]; 1 uM): 9.5%
- % Agonist Activity (168 GPCRs [3]; 10 uM): -0.2%
- % Antagonist Activity (168 GPCRs [3]; 10 uM): 12.9%
- % Agonist Activity (168 GPCRs [4]; DRD4, 1 uM): -0.7%
- % Antagonist Activity (168 GPCRs [4]; DRD4, 1 uM): 14.9%
- % Agonist Activity (168 GPCRs [4]; DRD4, 10 uM): -0.1%
- % Antagonist Activity (168 GPCRs [4]; DRD4, 10 uM): 7.7%
- % Agonist Activity (168 GPCRs [5]; GPR119, 1 uM): 17.1%
- % Antagonist Activity (168 GPCRs [5]; GPR119, 1 uM): 2.7%
- % Agonist Activity (168 GPCRs [5]; GPR119, 10 uM): 10.2%
- % Antagonist Activity (168 GPCRs [5]; GPR119, 10 uM): 3.8%
- % Agonist Activity (168 GPCRs [6]; 1 uM): 7%
- % Antagonist Activity (168 GPCRs [6]; 1 uM): -5%
- % Agonist Activity (168 GPCRs [6]; 10 uM): 6.5%
- % Antagonist Activity (168 GPCRs [6]; 10 uM): -13.9%
- % Agonist Activity (168 GPCRs [7]; CNR1, 1 uM): -0.5%
- % Antagonist Activity (168 GPCRs [7]; CNR1, 1 uM): 7.8%
- % Agonist Activity (168 GPCRs [7]; CNR1, 10 uM): 0.1%
- % Antagonist Activity (168 GPCRs [7]; CNR1, 10 uM): 11.2%

SMILES: CNC(C)C(=O)c1ccc2c(c1)OCO2 (centres unmarked) [methylone]
- % Agonist Activity (168 GPCRs [1]; 1 uM): -5.5%
- % Antagonist Activity (168 GPCRs [1]; 1 uM): 28.7%
- % Agonist Activity (168 GPCRs [1]; 10 uM): -3.7%
- % Antagonist Activity (168 GPCRs [1]; 10 uM): 14.5%
- % Agonist Activity (168 GPCRs [2]; GPR1, 1 uM): -0.5%
- % Antagonist Activity (168 GPCRs [2]; GPR1, 1 uM): 4.4%
- % Agonist Activity (168 GPCRs [2]; GPR1, 10 uM): -0.7%
- % Antagonist Activity (168 GPCRs [2]; GPR1, 10 uM): 7.4%
- % Agonist Activity (168 GPCRs [3]; 1 uM): -0.3%
- % Antagonist Activity (168 GPCRs [3]; 1 uM): 3.4%
- % Agonist Activity (168 GPCRs [3]; 10 uM): -0.1%
- % Antagonist Activity (168 GPCRs [3]; 10 uM): -0.9%
- % Agonist Activity (168 GPCRs [4]; DRD4, 1 uM): -8%
- % Antagonist Activity (168 GPCRs [4]; DRD4, 1 uM): 8.4%
- % Agonist Activity (168 GPCRs [4]; DRD4, 10 uM): -9.4%
- % Antagonist Activity (168 GPCRs [4]; DRD4, 10 uM): 12.2%
- % Agonist Activity (168 GPCRs [5]; GPR119, 1 uM): -5.8%
- % Antagonist Activity (168 GPCRs [5]; GPR119, 1 uM): 17.1%
- % Agonist Activity (168 GPCRs [5]; GPR119, 10 uM): -2.2%
- % Antagonist Activity (168 GPCRs [5]; GPR119, 10 uM): -8.8%
- % Agonist Activity (168 GPCRs [6]; 1 uM): -3.8%
- % Antagonist Activity (168 GPCRs [6]; 1 uM): -4.6%
- % Agonist Activity (168 GPCRs [6]; 10 uM): -3.8%
- % Antagonist Activity (168 GPCRs [6]; 10 uM): 1.9%
- % Agonist Activity (168 GPCRs [7]; CNR1, 1 uM): -0.4%
- % Antagonist Activity (168 GPCRs [7]; CNR1, 1 uM): -3.5%
- % Agonist Activity (168 GPCRs [7]; CNR1, 10 uM): -2.7%
- % Antagonist Activity (168 GPCRs [7]; CNR1, 10 uM): -17.1%
